# Reference: patent US6428983B1, “Histone deacetylase as target for antiprotozoal agents” (Merck & Co., priority 1995, dated 2002)
# Columns and labels:
# [1] = test system: histone deacetylase (E. tenella extract); experiment: Histone deacetylase inhibition assay (Assay 1), E. tenella extract; format: biochemical, Eimeria tenella
# Experimental: (§1) The standard assay contained in a total volume of 40 μL: 400 nmol HEPES-sodium, pH 7.4, 100 pmol of the substrate [AcGly-Ala-Lys(ε-^14C-Ac)-Arg-His-Arg-Lys(ε-^14C-Ac)-ValNH2] (see Kervabon et al (1979) FEBS Letters 106: 93-96) having a specific activity of approx. 114 mCi/mmol, and a source of histone deacetylase (HDAase) activity. The amount of HDAase added was chosen such that ≦20% of the substrate was consumed during the assay. The reaction was initiated by enzyme addition and allowed to proceed for 60 min at 41°. At 60 min, the reaction was terminated by the addition of a 50% slurry of Amberlite® AG 50W×4 cation exchange resin, sodium form (200-400 mesh) in 25 mM sodium acetate buffer, pH 4.2 (200 μL). The resin binds both remaining substrate and the (partially) deacetylated peptidyl products. The quenched reaction was then incubated for at least 30 min at 25° with occasional mixing, diluted with additional 25 mM sodium acetate buffer, pH 4.2 (760 μL; final volume 1000 μL), incubated for a minimum of an additional 30 min at 25° with occasional mixing, and then centrifuged at 10,000×g for 1 min. An aliquot of the supernatant (800 μL) containing the enzymatically released ^14C-acetate was removed, mixed with Aquasol 2 liquid scintillation counter (LSC) cocktail (10 mL), and counted in a Beckman model LS-5801 LSC. […]
# [2] = target: histone deacetylase (E. tenella lysate); experiment: Competitive binding assay with 3H-N-desmethoxyapicidin, E. tenella S100 lysate; conditions: 3H-N-desmethoxyapicidin ligand
# Experimental: E. tenella oocysts. Approximately 2×10^9 E. tenella oocysts are suspended in 5 ml of PBS/0.1 mM PMSF, 4 mls of an equal mixture (vol/vol) of 4.0 and 1.0 mm glass beads is added. The glass bead-oocyst mixture is then shaken for 20 minutes to cause disruption of the oocysts. The efficiency of breakage is checked microscopically. The resulting homogenate is separated from the glass beads and centrifuged at 3000×g for 10 min. The supernatant is then subjected to an additional centrifugation at 100,000 g for 1 hr. The pellet is discarded and the supernatant, referred to as the E. tenella S100 fraction, is retained for binding assays. After estimating the protein concentration, the supernatant (S100) is aliquoted and frozen at −80 C.
# (§2) Each assay tube contains a final volume of 1 ml with 1.3 ng/ml of ^3H-N-desmethoxyapicidin, 150-200 μg of the appropriate S100 supernatant and concentrations of potential HDA inhibitors from 0.001-10 μg/ml.
# (§3) (i) labeled substrate. […]
# (§4) Stock solutions of potential HDA inhibitors (ii) are diluted into 50 mM HEPES/Triton® buffer to achieve a final concentration of test compound in the range of 0.001-10 μM. ^3H-N-desmethoxyapicidin is added to a final concentration of 1.3 ng/ml. […] The filter is then dried and counted in scintillant.
# [3] = test system: P. falciparum; experiment: In vitro antiparasitic activity against P. falciparum; format: cell-based
# From the text: (2) Generally following the procedure described in Desjardins et al, “Quantitative Assessment of Antimalarial Activity In Vitro by a Semiautomated Microdilution Technique” Antimicrobial Agents and Chemotherapy 1979, 16:710-718.
# [4] = test system: E. tenella; experiment: In vitro antiparasitic activity against E. tenella; format: cell-based, Eimeria tenella
# From the text: (1) Generally following the procedure described in Crane, Schmatz, Stevens, Habbersett and Murray. Eimeria tenella: in vitro development in irradiated bovine kidney cells.(1984) Parasitology 88: 521-530.
# [5] = test system: histone deacetylase (chicken liver lysate); experiment: Competitive binding assay with 3H-N-desmethoxyapicidin, chick liver S100 lysate; conditions: 3H-N-desmethoxyapicidin ligand
# Experimental: Chick Liver. Livers from 3-5 three week old chickens are collected, rinsed in ice cold phosphate buffered saline (pH 7.4), diced into small pieces and rinsed again 3-4 times with ice cold 50 mM N-2-hydroxyethylpiperazine-N′-2-ethanesulfonic acid (HEPES) (pH 7.4) containing 0.1 mM phenylmethanesulfonyl fluoride (PMSF). The tissue is then resuspended in HEPES buffer, homogenized in a polytron homogenizer and centrifuged at 3000×g for 10 min. The supernatant is then subjected to an additional 100,000 g centrifugation for 1 hour. The pellet and the floating layer of lipid are discarded and the supernatant, referred to as the chick liver S100 fraction, is retained for binding assays. After estimating the protein concentration, the supernatant (S100) is aliquoted and frozen at −80 C.
# as §2, §3, §4
# [6] = test system: histone deacetylase (chicken liver extracts); experiment: Histone deacetylase inhibition assay (Assay 1), chicken liver extract; format: biochemical; conditions: Assay 1, chicken liver extracts
# Experimental: as §1
# [7] = test system: P. falciparum histones; experiment: Histone acetylation state in P. falciparum (14C acetate labeling, AUT gel); format: cell-based; conditions: infected red blood cells, 14C sodium acetate, 2 hours, FIG. 2
# Experimental: (§5) Acid urea triton (AUT) polyacrylamide gels were performed according to the methods of Alfageme et al (1974) J. Biol. Chem. 249, 3729, with modifications as described in Lennox and Cohen (Methods in Enzymology, 170, 532-549). For optimal resolution of HeLa cell and Plasmodium falciparum histones the separation gel contained 7.5M urea, 12% acrylamide, 0.38% Triton® X 100, 0.08% bis acrylamide, and 0.87M acetic acid. The loading gels contained 7.5M urea, 0.37% Triton X 100, 6% acrylamide, 0.04% bis acrylamide and 0.87M acetic acid. Gels were run in 1M acetic acid. Gels were pre-electrophoresed at 350V for 1 hour and run at 450V for 3.5 hours. Gels were either stained with Coomassie Brilliant Blue R in 7% acetic acid, 20% methanol and then destained in 7% acetic acid and 20% methanol, or treated with Enlightening (from New England Nuclear), dried and radiolabel detected by fluorography.
# Approximately 1×10^9 P. falciparum infected red blood cells (about 60% parasitized) were resuspended in 10 ml of RPMI 1640 containing various concentrations of test compounds and 250 μCi ^14C sodium acetate and incubated at 37° C. for 2 hours. The cells were then washed 3 time with PBS and histones were prepared as described below.
# Histones were prepared according to the method of Cary et al (1994) Parasitology Research, 80, 255-258. […]
# [8] = test system: HeLa cell histones; experiment: Histone acetylation state in HeLa cells (AUT gel electrophoresis); format: cell-based, human; conditions: HeLa cells treated 4 hrs, FIG. 1, relative to untreated cells
# Experimental: About 2×10^7 HeLa cells growing at 37 C were treated with various compounds in the standard tissue culture medium (MEM containing 10% fetal calf serum) for 4 hrs. Cells were then removed from the flask by scraping in PBS in a total volume of about 10 mls. The cells were washed twice in PBS and resuspended in about 3 mls lysis buffer (Lysis buffer; 0.45% Nonidet® P-40, 10 mM tris, 10 mM NaCl, 5 mM MgCl, 0.1 mM EGTA, 0.1 mM PMSF). The suspension was mixed by vortexing for 10 seconds, incubated on ice for 15 minutes and nuclei were pelleted by centrifugation through a 1 ml cushion of 30% sucrose in lysis buffer at 1300×g for 10 minutes. The supernatant was discarded and the nuclei were then resuspended in 1.0 ml water. H2SO4 was added to a final concentration of 0.4M and the nuclear suspension was incubated on ice for 30 min. and then pelleted by centrifugation at 13,000×g for 10 minutes. The pellets were discarded, and ten volumes of ice cold acetone was added to the supernatant proteins and left overnight at −20° C. to precipitate soluble proteins. These proteins (predominantly histones) were pelleted by centrifugation at 10,000×g for 15 minutes at 4° C. and resuspended in AUT sample buffer (Sample buffer: 0.9M acetic acid, 0.02% w/v methyl green) in preparation for gel electrophoresis.
# as §5, with “Gels were run in 1M acetic acid. Gels were pre-electrophoresed at 350V for 1 hour and run at 450V for 3.5 hours.” left out
structure (smiles),measurement,setting,value
CC(/C=C/C(=O)O)=C\[C@@H](C)C(=O)c1ccc(N(C)C)cc1 [trichostatic acid],"IC50 in enzyme inhibition assay, E. tenella extract",[1],inactive
same,IC50,[2],> 1000 nM
same,"IC50 in binding assay, E. tenella lysate",[2],no activity
same,IC50 against P. falciparum,[3],not active
same,minimum inhibitory concentration against E. tenella,[4],not active
same,"IC50 in binding assay, chicken liver lysate",[5],no activity
same,"IC50 in enzyme inhibition assay, chicken liver extract",[6],inactive
CC(/C=C/C(=O)NO)=C\[C@@H](C)C(=O)c1ccc(N(C)C)cc1 [trichostatin],Hyperacetylation of P. falciparum histones,[7],cause hyperacetylation
same,Hyperacetylation of HeLa cell histones (shift in histone gel profile),[8],cause a distinct shift in the histone gel profiles
"CCC(=O)CCCCC[C@@H]1NC(=O)[C@H]2CCCCN2C(=O)[C@H]([C@@H](C)CC)NC(=O)[C@H](Cc2cn(OC)c3ccccc23)NC1=O [apicidin, Apicidin]",Hyperacetylation of P. falciparum histones,[7],cause hyperacetylation
same,Hyperacetylation of HeLa cell histones (shift in histone gel profile),[8],cause a distinct shift in the histone gel profiles
C[C@@H]1NC(=O)[C@H]2CCCN2C(=O)[C@H](CCCCCC(=O)[C@@H]2CO2)NC(=O)[C@@H](C)NC1=O [HC-toxin],Hyperacetylation of HeLa cell histones (shift in histone gel profile),[8],cause a distinct shift in the histone gel profiles
